This note sets out measurements from patent publication US20130029970A1 (priority 2009, published 2013).

In one assay the target is T1, human CB2 receptors (Homo sapiens, UniProt P34972).
T1 construct: (cDNA clone) CNR0200000
The assay is described as follows: cAMP assay in HEK-293 cells, hCB2 agonist. To be noted: inhibition of forskolin-stimulated cAMP, HEK-293 cells; for pEC50: read-out: hCB2 EC50 (cAMP ag). The class given is cell-based. The protocol: (§1) Functional assays which monitor G-protein coupled receptor or downstream cellular responses can be used to characterize potential CB1 receptor and/or CB2 receptor agonist or antagonist activities. Direct activation (or inhibition of activation) can be monitored using a GTPγS assay (membrane-based assay) or cAMP assay (whole cell-based assay).
cAMP assays were performed in HEK-293 cells stably expressing human CB1 or CB2 receptors. […] Cells suspensions were centrifuged and the cells were washed once with PBS, were centrifuged again, and the cells were re-suspended in HBSS (Hank's Balanced Salt Solution, Cellgro, Cat #21-022-CV) solution containing 10 mM HEPES and 0.1% fatty acid free BSA (Sigma, Cat #A0281). Cell suspensions were prepared at 1,500,000 cells per ml. Stock solutions of test substances (10 mM) in DMSO were diluted to 1 mM using 30% DMSO as diluent. Test substances of solutions (1 mM) were further diluted down to 3× of final assay concentrations in the above HBSS buffer containing 0.1% BSA in the presence of 90 uM forskolin (Sigma Cat#F6886). To perform the assay, 20 uL of cell suspension (1,500,000 cells/mL) were added to each well in 96 well plate and treated with 10 uL test substance solution diluted as described above. Cells and compounds were incubated at 37° C. for 30 minutes. Cells were lysed and cAMP concentration was measured using DiscoveRx −XS+ cAMP assay kit (DiscoveRx Corporation Ltd., Fremont, Calif., USA, Cat #90-0075-03), following the manufacturer's protocol. GraphPad Prism software was used to calculate EC50 values using sigmoidal dose response curve fitting. The maximal amount of cAMP produced by forskolin was defined as 100%.
(In general: cAMP levels reflect the balance of adenylyl cyclase and phosphodiesterase activity.)

The next assay addresses T2, human CB1 receptors (Homo sapiens, UniProt P21554).
T2 construct: (cDNA clone) CNR01L000
The assay is described as follows: cAMP assay in HEK-293 cells, hCB1 agonist. The class given is cell-based. As to conditions: inhibition of forskolin-stimulated cAMP, HEK-293 cells.
Excerpt: Stable, HEK-293-derived cell lines that recombinantly express hCBI or hCB2 were established. In brief, the clone hCB1 (CNR IL) or hCB2 (CNR2) was transfected into human embryonic kidney cells (HEK-293) using Lipofectamine 2000 (Gibco, Cat#11668-019) according to the manufacturer's protocol. Transfected clones were isolated by single colony purification and clones were screened for receptor expression using a whole cell, ^3H—CP 55,940 radioligand binding assay. HEK-293 stable cells were maintained in Dulbecco's modified Eagles medium (DMEM) containing 10% fetal bovine serum, 2 mM L-glutamine and 0.5 mg/mL G-418.
as §1
cAMP assays were performed in HEK-293 cells stably expressing human CB1 or CB2 receptors. For cannabinoid receptor functional assays measuring agonist effects on cellular cAMP levels, monolayers of cultured cells were harvested with enzyme-free PBS-based cell dissociation buffer (Gibco, Cat#13151-04). Cells suspensions were centrifuged and the cells were washed once with PBS, were centrifuged again, and the cells were re-suspended in HBSS (Hank's Balanced Salt Solution, Cellgro, Cat #21-022-CV) solution containing 10 mM HEPES and 0.1% fatty acid free BSA (Sigma, Cat #A0281). Cell suspensions were prepared at 1,500,000 cells per ml. Stock solutions of test substances (10 mM) in DMSO were diluted to 1 mM using 30% DMSO as diluent. Test substances of solutions (1 mM) were further diluted down to 3× of final assay concentrations in the above HBSS buffer containing 0.1% BSA in the presence of 90 uM forskolin (Sigma Cat#F6886). To perform the assay, 20 uL of cell suspension (1,500,000 cells/mL) were added to each well in 96 well plate and treated with 10 uL test substance solution diluted as described above. Cells and compounds were incubated at 37° C. for 30 minutes. Cells were lysed and cAMP concentration was measured using DiscoveRx −XS+ cAMP assay kit (DiscoveRx Corporation Ltd., Fremont, Calif., USA, Cat #90-0075-03), following the manufacturer's protocol. GraphPad Prism software was used to calculate EC50 values using sigmoidal dose response curve fitting. The maximal amount of cAMP produced by forskolin was defined as 100%. CB1 or CB2 agonists reduced forskolin-stimulated cAMP signaling. The EC50 value of an agonist compound was defined as the concentration at which 50% of the forskolin-stimulated cAMP synthesis was inhibited.

A further assay concerns the target T3, human CB2 (hCB2) (Homo sapiens, UniProt P34972).
T3 construct: (cDNA clone) CNR0200000
As to the kind of experiment: 35S GTPγS binding assay, hCB2 agonist. The class given is biochemical. As to conditions: GTPγS agonist, HEK-293 membranes; read-out: hCB2 EC50 (GTPyS ag). How it is done:
cDNA expression clones for human CB1 (hCB1, Genbank Accession No. AY225225) and human CB2 (hCB2, Genbank Accession No. AY242132) expressed in vector pcDNA3.1+ were purchased from UMR cDNA Resource Center, Rolla, Mo. (Clone ID CNR01L000 for hCB1; CNR0200000 for hCB2).
(§2) Membranes were isolated from transfected cells as follows. Monolayers of cultured cells were washed twice with phosphate-buffered saline (PBS). […] Homogenates were centrifuged 10 minutes at 1000×g at 4° C. The supernatant was collected and was centrifuged for 1 hour at 40,000×g. The supernatant was then decanted and the resulting pellet was re-suspended in 20 mM HEPES, pH 7.4, 5 mM MgCl2, 1 mM EDTA, 10% sucrose with complete cocktail protease inhibitors. Protein concentration of membrane suspensions were measured by Bradford Protein Assay using bovine serum albumin as the standard (BioRad catalog #500-0006). Protein concentrations of membrane suspensions were adjusted with the final buffer in the range of 5 to 10 mg/mL and were stored at −80° C. until further use.
as §1
^35S GTPγS binding assays were performed by incubating recombinant cell membranes prepared above (5 μg) in the presence of scintillation proximity assay beads (SPA beads, Catalog #RPNQ0252 GE Healthcare, Buckinghamshire, England) in GTPγS binding buffer [50 mM HEPES (pH 7.4), 100 mM NaCl, 5 mM MgCl2, 0.001% saponin (Sigma catalog #S4521)] supplemented with 20 uM GDP (Sigma catalog #G7127) in the presence or absence of test compound. The reaction was carried out in 96-well microplates with 0.1 nM [^35S]GTPγS (specific activity=1250 Ci/mmol; Perkin Elmer catalog #NEG030X250UC) in a final volume of 100 uL. After a 90 min room temperature incubation, the reaction was analyzed using a scintillation counter (Perkin Elmer Microbeta instrument). Binding data were analyzed using GraphPad Prism.
(Binding of GTPγS marks nucleotide exchange on a G protein.)

Assay [1] concerns the target T4, recombinant human cannabinoid receptor CB2 (Homo sapiens, UniProt P34972).
T4 construct: (cDNA clone) CNR0200000
The assay is described as follows: Cannabinoid receptor radioligand binding assay, [3H]-CP 55,940 displacement, hCB2. The protocol:
as §2
A rapid filtration technique using Millipore FB filter plates (Catalog #MADVNOB) and filtration apparatus (Millipore system Catalog MAVM0960R) with vacuum aspiration was used to harvest and rinse labeled membranes (8 times with 0.2 mL of chilled binding buffer). […] Binding data were analyzed using GraphPad Prism (GraphPad Software, Inc. San Diego, Calif.).

SMILES strings stand for the structures. pEC50, pIC50: −log10 of the molar value.

T3 sequence (P34972 whole entry): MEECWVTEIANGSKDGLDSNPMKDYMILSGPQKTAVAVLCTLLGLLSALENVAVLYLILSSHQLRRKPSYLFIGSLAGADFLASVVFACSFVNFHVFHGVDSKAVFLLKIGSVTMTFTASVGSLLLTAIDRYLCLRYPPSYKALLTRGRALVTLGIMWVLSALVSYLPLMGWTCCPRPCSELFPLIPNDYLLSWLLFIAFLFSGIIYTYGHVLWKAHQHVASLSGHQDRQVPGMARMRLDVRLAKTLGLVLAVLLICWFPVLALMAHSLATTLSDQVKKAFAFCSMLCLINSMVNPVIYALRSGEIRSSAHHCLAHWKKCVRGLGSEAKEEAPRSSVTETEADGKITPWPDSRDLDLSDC
T4 sequence (P34972 whole entry): as above
T1 sequence (P34972 whole entry): as above
T2 sequence (P21554 whole entry): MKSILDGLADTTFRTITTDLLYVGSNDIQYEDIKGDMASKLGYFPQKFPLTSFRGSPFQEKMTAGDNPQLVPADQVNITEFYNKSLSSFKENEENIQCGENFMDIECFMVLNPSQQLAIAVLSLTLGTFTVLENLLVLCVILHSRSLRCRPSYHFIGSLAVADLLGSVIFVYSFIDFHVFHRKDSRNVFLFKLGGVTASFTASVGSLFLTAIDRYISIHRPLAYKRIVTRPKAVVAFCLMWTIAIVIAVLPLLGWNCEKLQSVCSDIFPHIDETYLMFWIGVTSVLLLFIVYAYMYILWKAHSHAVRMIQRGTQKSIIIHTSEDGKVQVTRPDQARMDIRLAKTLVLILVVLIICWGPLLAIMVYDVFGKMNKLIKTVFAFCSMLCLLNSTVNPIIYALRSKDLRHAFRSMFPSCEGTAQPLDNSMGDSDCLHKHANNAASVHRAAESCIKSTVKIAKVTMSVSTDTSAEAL

Turning to `COc1ccc(C(=O)c2cc3cc(C)n(CCCNS(=O)(=O)C(F)(F)F)c3s2)cc1` [Compound 75, 1,1,1-Trifluoro-N-(3-(2-(4-methoxybenzoyl)-5-methyl-6H-thieno[2,3-b]pyrrol-6-yl)propyl)methanesulfonamide], the “hCB2 EC50 (cAMP ag, nM)” value at human CB2 receptors is “NS (NS means “Not Significant,” which means less than 30% agonist activity when compared to the positive control.)”. The “hCB1 EC50 (cAMP ag, nM)” value at human CB1 receptors is “NS (NS means “Not Significant,” which means less than 30% agonist activity when compared to the positive control.)”.

For the compound `COc1ccc(C(=O)c2cc3cc(C)n(CCN4CCNC4=O)c3s2)cc1` [Compound 61], at human CB2 receptors, the “hCB2 EC50 (cAMP ag, nM)” value was “NS (NS means “Not Significant,” which means less than 30% agonist activity when compared to the positive control.)”. Further, the “hCB1 EC50 (cAMP ag, nM)” value at human CB1 receptors is on record as “NS (NS means “Not Significant,” which means less than 30% agonist activity when compared to the positive control.)”.

`COc1ncc(C(=O)c2cc3cc(C)n(CCN4CCOCC4)c3s2)cn1` [Compound 118, (2-Methoxypyrimidin-5-yl)(5-methyl-6-(2-morpholinoethyl)-6H-thieno[2,3-b]pyrrol-2-yl)methanone]: the pEC50 on human CB2 receptors and on human CB2 (hCB2) was 6.00 to 7.00 each time. For the same compound, the “hCB1 EC50 (cAMP ag, nM)” value on human CB1 receptors is on record as “NS (NS means “Not Significant,” which means less than 30% agonist activity when compared to the positive control.)”.

Regarding `Cc1ccc(C(=O)c2cc3cc(C)n(CCCNS(C)(=O)=O)c3s2)c(F)c1` [Compound 97, N-(3-(2-(2-Fluoro-4-methylbenzoyl)-5-methyl-6H-thieno[2,3-b]pyrrol-6-yl)propyl)methanesulfonamide], the pEC50 at human CB2 receptors and at human CB2 (hCB2) was greater than 7.00 each time. The “hCB1 EC50 (cAMP ag, nM)” value on human CB1 receptors is “NS (NS means “Not Significant,” which means less than 30% agonist activity when compared to the positive control.)”. For the same compound, the pIC50 in assay [1] was 6.00 to 7.00.

Consider `CCOc1ccc(C(=O)c2cc3cc(C)n(CCCNS(C)(=O)=O)c3s2)c(F)c1` [Compound 95, N-(3-(2-(4-Ethoxy-2-fluorobenzoyl)-5-methyl-6H-thieno[2,3-b]pyrrol-6-yl)propyl)methanesulfonamide], for which the pEC50 is greater than 7.00 on human CB2 receptors and 6.00 to 7.00 on human CB2 (hCB2). Moreover, the “hCB1 EC50 (cAMP ag, nM)” value at human CB1 receptors is reported as “NS (NS means “Not Significant,” which means less than 30% agonist activity when compared to the positive control.)”. The negative logarithm of the IC50 (pIC50) in assay [1] is 6.00 to 7.00.

As for `COc1ccc(C(=O)c2cc3cc(C)n(CCCNC(C)=O)c3s2)cc1` [Compound 63, N-(3-(2-(4-Methoxybenzoyl)-5-methyl-6H-thieno[2,3-b]pyrrol-6-yl)propyl)acetamide], the “hCB2 EC50 (cAMP ag, nM)” value on human CB2 receptors is given as “NS (NS means “Not Significant,” which means less than 30% agonist activity when compared to the positive control.)”. Moreover, on human CB1 receptors, the “hCB1 EC50 (cAMP ag, nM)” value is “NS (NS means “Not Significant,” which means less than 30% agonist activity when compared to the positive control.)”.

Regarding `CCOc1ccc(C(=O)c2cc3cc(C)n(CCCNS(C)(=O)=O)c3s2)cc1` [Compound 94, N-(3-(2-(4-Ethoxybenzoyl)-5-methyl-6H-thieno[2,3-b]pyrrol-6-yl)propyl)methanesulfonamide], the figures for the pEC50 on human CB2 receptors and at human CB2 (hCB2) were 6.00 to 7.00 and greater than 7.00, respectively. The “hCB1 EC50 (cAMP ag, nM)” value at human CB1 receptors was “NS (NS means “Not Significant,” which means less than 30% agonist activity when compared to the positive control.)”. Besides, the negative-log IC50 (pIC50) in assay [1] is 6.00 to 7.00.

What is called pEC50 is the EC50 on a negative log10 scale, so that one unit is a factor of ten. Broadly, the pIC50 is the IC50 on a negative log10 scale, so that one unit is a factor of ten.
